From PMC6300282, “Sulphamethazine derivatives as immunomodulating agents: New therapeutic strategies for inflammatory diseases” (PLoS ONE, 2018)
Values after ≈ are worked out from the molar mass of the structure shown.

What was measured:
MTT cytotoxicity assay = format: cell-based, mouse; conditions: mouse; for IC50: MTT, 48 hours, read-out: Cytotoxicity NIH-3T3 cell line (IC50)
Method: The cytotoxicity was recorded as concentration causing 50% growth inhibition (IC50).

[1] = tested on: Staphylococcus aureus (ATCC 25923); test: Microplate Alamar Blue Assay, Staphylococcus aureus; format: cell-based; conditions: Staphylococcus aureus, ATCC25923; 200 μg/mL; NI = No inhibition; read-out: Percentage (%) Inhibition, Staphylococcus aureus
Method: The anti-bacterial activity of synthesized compound were evaluated by the Microplate Alamar Blue Assay. Staphylococcus aureus (ATCC 25923), Pseudomonas aeruginosa(POA 286), Salmonella typhi (ATCC 14028), Bacillus subtilis ATCC 6633) and Escherichia coli (ATCC 12022) were used in this study as a standard bacterial strains and they were obtained from microbial bank of PCMD, International Center for Chemical and Biological Sciences, University of Karachi, Karachi-75270, Pakistan. The bacterial colonies grown in Trypton Soya Agar (TSA) (Oxoid Limited, UK) were inoculated in Mueller Hinton Broth (MHB) (Oxoid Limited, UK) and incubated overnight at 37 °C. Fully grown bacterial cultures were then diluted to adjust with 0.5 McFarland Turbidity Index (equivalent to 1.5 × 10^8 CFU/mL). Stock solutions (4 mg/mL) of different test compounds were prepared in DMSO and 10μL each of these stock solutions were placed in well of flat bottom, polystyrene, sterile 96-wells plate except the positive control wells (media + bacteria). This gives 200μg/mL concentrations of compounds in final 200 μL solution. Each compound was run in triplicates. Finally, bacterial suspension (5 x 10^6 CFU/mL) was added in each well. Plates were sealed by parafilm and incubated at 37 °C for 18–22 hrs. Next day, 20 μL of 0.02% resazurin sodium salt dye (Chem-Impex-Int’LInc) was added in each well and incubated in shaking incubator at 80 rpm, 37 °C for 2–3 hrs. The color change from blue to reddish pink indicates the growth of bacteria. For quantitative analysis, plates were read at 570 nm and 600 nm in Multiskan GOmicroplate spectrophotometer, (Thermo Scientific, USA). The % inhibition of bacterial growth was calculated using below mentioned formula.
For the calculation of the % difference in reduction between treated and control cells in cytotoxicity/proliferation assays: =(εOX)λ2Aλ1-(εOX)λ1Aλ2oftestagent/(εOX)λ2A°λ1-(εOX)λ1A°λ2ofpositivegrowthcontrol×100

[2] = tested on: TNF-α production from THP-1 human monocytic leukemia cell line; test: TNF-α production (ELISA), LPS stimulated THP-1 cells; format: cell-based; conditions: Homo sapiens; PMA-differentiated THP-1 cells, 50 ng/mL LPS, 4 hours; three doses 1, 10, 100 μg/mL; mean ± SD of three; read-out: TNF-α Inhibition (IC50)
Description: RPMI-1640 (R8758, Sigma Aldrich, St. Louis, USA); L-glutamine (25030081, Gibco, California, USA); D-glucose (G8270, Sigma Aldrich, St. Louis, USA); 2-mercaptoethanol (190242, MP Biomedicals, lllkirch, France); sodium pyruvate (11360–070, Gibco, California, USA); FBS (A11-104, PAA Laboratories, Pasching, Austria); HEPES (H3375, Sigma Aldrich, St. Louis, USA); PMA (151864, MP Biomedicals, lllkirch, France); lipopolysaccharide B of E. coli 0111:B4 (LPS) (3922–25, DIFCO Laboratories, USA); 24-well tissue culture plates (CLS3524, Corning, Dublin, USA); Flat bottom 96-well tissue culture plates (CLS3300, Corning, New York, USA). BSA (151429, MP Biomedicals, lllkirch, France); PBS tablets (41620016–4, Bioworld, Dublin, Ireland); Tween 20 (822184, Merck, Damstadt, Germany); Human TNF-α DuoSet ELISA Kit (DY210, R&D Systems, Minneapolis, USA); Human IL-1β DuoSet ELISA Kit (DY201, R&D Systems, Minneapolis, USA); and Human IL-2 DuoSet ELISA Kit (DY202, R&D Systems, Minneapolis, USA); ELISA plate sealers (DY992, R&D Systems, Minneapolis, USA); Clear flat bottom 96-well microplates (DY990, R&D Systems, Minneapolis, USA). Human monocytic leukemia cells THP-1 were obtained from (European Collection of Cell Cultures, UK). The cells were maintained in RPMI-1640 containing 5.5 mmol/L glucose (BioM Laboratories, Chemical Division, Malaysia), 50 μmol/L mercaptoethanol (Merck Damstadt, Germany), 10% FBS (fetal bovine serum), 2 mmol/L; L-glutamine (PAA Laboratories, GmbH, Pasching, Austria). Cells were grown in 75 cc flasks, harvested and 2.5×10^5 cells/mL was then plated in 24-well tissue culture plates. 20 ng/mL of phorbol-12-myristate-13-acetate (PMA), (SERVA, Heidelberg, Germany) was added followed by incubation for 24 hours at 37 °C in 5% CO2to convert them into macrophage like cell. Cells were then stimulated with E. coli lipopolysacchride B, (DIFCO Laboratories, michigon, USA) at a final concentration of 50 ng/mL and treated with compounds at three different concentration (1, 10 and 100 μg/mL) and then incubated for 4 hours at 37 °C in 5% CO2. The supernatants collected were analyzed for the level of TNF -α using the human TNF-α Duo Set ELISA (R&D Systems, Minneapolis, USA), and according to manufacturer’s instructions.

[3] = tested on: nitric oxide (NO) production from LPS activated J774.2 mouse macrophages; test: Nitric oxide production (Griess), LPS activated macrophages; format: cell-based; conditions: J774.2 cells, 30 μg/mL LPS, three doses 1, 10, 100 μg/mL, mean ± SD of three, read-out: NO Inhibition (IC50)
Method: The mouse macrophage cell line J774.2 (European Collection of Cell Cultures, UK) was cultured in 75 cc flasks IWAKI (Asahi Techno Glass, Japan) in DMEM Sigma-Aldrich (Steinheim, Germany) supplemented with 10% fetal bovine serum GIBCO (New York, USA)1% streptomycin/penicillin. Flasks were kept at 37 °C in atmosphere of humidified air containing 5% CO2, cells were seeded in 96-well plate (10^6 cells/mL) and were induced by 30 μg/mL e. coli lipopolysaccharide (LPS) (DIFCO Laboratories michigon, USA). The test compounds were added at concentrations of (1, 10 and 100 μg/mL) and plate was incubated at 37 °C in 5% CO2. Nitrite accumulation in culture supernatant was measured using the Griess reagents as described previously.

Structure (SMILES)	IC50 (MTT cytotoxicity assay) [µM]	inhibition at 200 µg/mL [1] [%]	IC50 [2] [µg/mL]	IC50 [3] [µg/mL]	melting point [°C]	IC50 at 48 h (MTT cytotoxicity assay) [µM]
Cc1cc(C)nc(NS(=O)(=O)c2ccc(NC(=O)C(Br)CBr)cc2)n1 (stereo not drawn) [Compound 3, 2,3-Dibromo-N-(4-(N-(4,6-dimethylpyrimidin-2-yl)sulfamoyl)phenyl)propanamide]	> 30	60	< 1	< 1		
Cc1cc(C)nc(NS(=O)(=O)c2ccc(NC(=O)c3cccc(CCl)c3)cc2)n1 [Compound 4, 3-(Chloromethyl)-N-(4-(N-(4,6-dimethylpyrimidin-2-yl)sulfamoyl)phenyl)benzamide]	> 30	3.21	< 1	< 1		
Cc1cc(C)nc(NS(=O)(=O)c2ccc(NC(=O)c3ccc(CCl)cc3)cc2)n1 [Compound 5, 4-(Chloromethyl)-N-(4-(N-(4,6-dimethylpyrimidin-2-yl)sulfamoyl)phenyl)benzamide]	> 30	35	< 1	6.9 ± 1.9 (≈ 16 µM)		
Cc1cc(C)nc(NS(=O)(=O)c2ccc(NC(=O)c3cc(C(F)(F)F)cc(C(F)(F)F)c3)cc2)n1 [Compound 6, N-(4-(N-(4,6-dimethylpyrimidin-2-yl)sulfamoyl)phenyl)-3,5-bis(trifluoromethyl)benzamide]	> 30	32.7	< 1	7.8 ± 0.3 (≈ 15 µM)		
Cc1cc(C)nc(NS(=O)(=O)c2ccc(NC(=O)c3cc(F)cc(F)c3)cc2)n1 [Compound 7, N-(4-(N-(4,6-dimethylpyrimidin-2-yl)sulfamoyl)phenyl)-3,5-difluorobenzamide]	> 30	54.3	38.9 ± 0.7 (≈ 93 µM)	8 ± 0.3 (≈ 19.1 µM)	237 to 240	
Cc1cc(C)nc(NS(=O)(=O)c2ccc(NC(=O)c3cc(F)cc(C(F)(F)F)c3)cc2)n1 [Compound 8, N-(4-(N-(4,6-dimethylpyrimidin-2-yl)sulfamoyl)phenyl)-3-fluoro-5-(trifluoromethyl)benzamide]	> 30	47.3	9.5 ± 0.4 (≈ 20.3 µM)	7.3 ± 0.3 (≈ 15.6 µM)		
Cc1cc(C)nc(NS(=O)(=O)c2ccc(NC(=O)c3ccc(C(F)(F)F)c(F)c3)cc2)n1 [Compound 9, N-(4-(N-(4,6-dimethylpyrimidin-2-yl)sulfamoyl)phenyl)-3-fluoro-4-(trifluoromethyl)benzamide]	> 30	27.9	2.1 ± 0.2 (≈ 4.48 µM)	7.3 ± 0.4 (≈ 15.6 µM)		
Cc1cc(C)nc(NS(=O)(=O)c2ccc(NC(=O)c3ccc(F)c(C(F)(F)F)c3)cc2)n1 [Compound 10, N-(4-(N-(4,6-dimethylpyrimidin-2-yl)sulfamoyl)phenyl)-4-fluoro-3-(trifluoromethyl)benzamide]	> 30	1.09	34.5 ± 4.1 (≈ 73.6 µM)	7.3 ± 0.2 (≈ 15.6 µM)		
Cc1cc(C)nc(NS(=O)(=O)c2ccc(NC(=O)C(C)Cl)cc2)n1 (stereo not drawn) [Compound 11, 2-Chloro-N-(4-(N-(4,6-dimethylpyrimidin-2-yl)sulfamoyl)phenyl)propanamide]	> 30	< 0	> 100	26.3 ± 1.8 (≈ 71.3 µM)	256 to 258	
Cc1cc(C)nc(NS(=O)(=O)c2ccc(NC(=O)c3ccc(F)cc3)cc2)n1 [Compound 12, N-(4-(N-(4,6-dimethylpyrimidin-2-yl)sulfamoyl)phenyl)-4-fluorobenzamide]	> 30	49.7	9.9 ± 0.2 (≈ 24.7 µM)	10.8 ± 2.1 (≈ 27 µM)		
Cc1cc(C)nc(NS(=O)(=O)c2ccc(NC(=O)c3cccc([N+](=O)[O-])c3)cc2)n1 [Compound 13, N-(4-(N-(4,6-dimethylpyrimidin-2-yl)sulfamoyl)phenyl)-3-nitrobenzamide]	> 30	34.3	19.5 ± 1 (≈ 45.6 µM)	10.9 ± 0.5 (≈ 25.5 µM)	251 to 253	
Cc1cc(C)nc(NS(=O)(=O)c2ccc(N)cc2)n1 [compound 1, Sulfamethazine, reference compound]		42.2	> 100	18.9 ± 1.7 (≈ 67.9 µM)		> 30
